In patent publication US12611438B2, “Antiviral composition comprising a nucleolin-binding peptide” (ANYGEN CO., LTD., priority 2021, dated 2026):

Tests used:
SARS-COV-2 = conditions: 24 h
[1] = MTT cytotoxicity assay, Vero cells; conditions: African green monkey

Compound `CC[C@H](C)[C@H](NC(=O)[C@H](CCCNC(=N)N)NC(=O)[C@H](CC(C)C)NC(=O)[C@@H](NC(=O)[C@H](CCCNC(=N)N)NC(=O)[C@H](CCSC)NC(=O)[C@@H](NC(=O)[C@@H](N)CCCNC(=N)N)[C@@H](C)CC)[C@@H](C)CC)C(=O)N[C@@H](CC(C)C)C(=O)N[C@@H](CCCCN)C(=O)N[C@@H](CC(C)C)C(=O)N[C@@H](C)C(=O)N[C@@H](CCCNC(=N)N)C(=O)NCCCC[C@H](NC(=O)[C@H](CCCNC(=N)N)NC(=O)[C@H](C)NC(=O)[C@H](CC(C)C)NC(=O)[C@H](CCCCN)NC(=O)[C@H](CC(C)C)NC(=O)[C@@H](NC(=O)[C@H](CCCNC(=N)N)NC(=O)[C@H](CC(C)C)NC(=O)[C@@H](NC(=O)[C@H](CCCNC(=N)N)NC(=O)[C@H](CCSC)NC(=O)[C@@H](NC(=O)[C@@H](N)CCCNC(=N)N)[C@@H](C)CC)[C@@H](C)CC)[C@@H](C)CC)C(=O)N[C@@H](CSSC[C@H](NC(=O)[C@H](CCCCNC(=O)CCOCCOCCOCCOCCOCCOCCNC(=O)[C@H](CCCCN)NC(=O)[C@H](CC(C)C)NC(=O)[C@H](Cc1ccc(O)cc1)NC(=O)[C@@H](NC(=O)[C@H](CCSC)NC(=O)[C@H](C)NC(=O)CNC(=O)[C@H](Cc1c[nH]cn1)NC(=O)[C@@H](N)CCCNC(=N)N)C(C)C)NC(=O)CCOCCOCCOCCOCCOCCOCCNC(=O)[C@H](CCCCN)NC(=O)[C@H](CC(C)C)NC(=O)[C@H](Cc1ccc(O)cc1)NC(=O)[C@@H](NC(=O)[C@H](CCSC)NC(=O)[C@H](C)NC(=O)CNC(=O)[C@H](Cc1c[nH]cn1)NC(=O)[C@@H](N)CCCNC(=N)N)C(C)C)C(=O)O)C(=O)O` [AGM-330d-dCPP] has an IC50 (SARS-COV-2) of 5.2 µM and a CC50 at 24 h [1] of 7.73 µM.
